Test results published in US20090082326A1, “SOLUBLE DOSAGE FORMS CONTAINING CEPHEM DERIVATIVES SUITABLE FOR PARENTERAL ADMINISTRATION” (Forest Laboratories Holdings Limited, priority 2007, published 2009).

What was measured:
Format in all cases: physicochemical
[1] = pH solubility profile: one hour and three hour kinetic solubility in USP buffers at 0.05 M; settings: aqueous buffer, thermodynamic from solid; for solubility at 1 h / solubility at 3 h: USP buffer 0.05 M, 25° C.
[2] = One hour kinetic solubility in histidine mixtures; settings: USP buffer with histidine, 25 °C, aqueous buffer, thermodynamic from solid
[3] = Aqueous solubility (stated in the description); settings: water
[4] = One hour kinetic solubility in L-arginine mixtures; settings: 25 °C, aqueous buffer, thermodynamic from solid
[5] = One hour kinetic solubility in citric acid/sodium citrate ion mixtures; settings: 25 °C, aqueous buffer, thermodynamic from solid
[6] = One hour kinetic solubility in DL arginine mixtures; settings: 25 °C, aqueous buffer, thermodynamic from solid
[7] = One hour kinetic solubility in acetic acid/sodium acetate ion mixtures; settings: 25 °C, thermodynamic from solid

CC(=O)[O-].CCO/N=C(\C(=O)N[C@@H]1C(=O)N2C(C(=O)O)=C(Sc3nc(-c4cc[n+](C)cc4)cs3)CS[C@H]12)c1nsc(NP(=O)(O)O)n1.O [ceftaroline fosamil, (6R,7R)-7-[[2(Z)-ethoxyimino-[5-(phosphonoamino)-1,2,4-thiadiazol-3-yl]acetyl]amino]-3-[[4-(1-methyl-pyridinium-4-yl)thiazol-2-yl]sulfanyl]-8-oxo-5-thia-1-azabicyclo[4.2.0]oct-2-en-2-carboxylate monoacetate monohydrate]
solubility ([1]; USP buffers, 25 °C, over pH about 3 to about 8, 0.05 M): 25 to 36 mg/mL | solubility at 1 h ([1]; pH 1.2): 6 mg/mL | solubility at 3 h ([1]; pH 1.2): 6 mg/mL | solubility at 1 h ([1]; pH 1.9): 9 mg/mL | solubility at 3 h ([1]; pH 1.9): 9 mg/mL | solubility at 1 h ([1]; pH 2.9): 27 mg/mL | solubility at 3 h ([1]; pH 2.9): 27 mg/mL | solubility at 1 h ([1]; pH 3.7): 36 mg/mL | solubility at 3 h ([1]; pH 3.7): 29 mg/mL | solubility at 1 h ([1]; pH 5.3): 26 mg/mL | solubility at 3 h ([1]; pH 5.3): 26 mg/mL | solubility at 1 h ([1]; pH 5.9): 34 mg/mL | solubility at 3 h ([1]; pH 5.9): 29 mg/mL | solubility at 1 h ([1]; pH 7.3): 25 mg/mL | solubility at 3 h ([1]; pH 7.3): 24 mg/mL | solubility at 1 h ([1]; pH 8.0): 29 mg/mL | solubility at 3 h ([1]; pH 8.0): 24 mg/mL | solubility at 1 h ([1]; pH 9.0): 16 mg/mL | solubility at 3 h ([1]; pH 9.0): 12 mg/mL | solubility at 1 h ([2]; histidine 0.05 M): 43 mg/mL | solubility at 1 h ([2]; histidine 0.1 M): 75 mg/mL | solubility [3]: ~36 mg/mL | solubility at 1 h ([4]; L-arginine mixtures, at L-arginine concentrations of 0.5 M and higher, read-out: solubility): > 200 mg/mL | solubility at 1 h ([4]; USP buffer with L-arginine, L-arginine 0.05 M, 25° C., read-out: Solubility at 1 hr): 39 mg/mL | solubility at 1 h ([4]; USP buffer with L-arginine, L-arginine 0.1 M, 25° C., read-out: Solubility at 1 hr): 82 mg/mL | solubility at 1 h ([4]; USP buffer with L-arginine, L-arginine 0.5 M, 25° C., read-out: Solubility at 1 hr): 226 mg/mL | solubility at 1 h ([5]; USP buffer with citric acid/sodium citrate, citric acid/sodium citrate 0.05 M, 25° C., read-out: Solubility at 1 hr): 121 mg/mL | solubility at 1 h ([5]; USP buffer with citric acid/sodium citrate, citric acid/sodium citrate 0.1 M, 25° C., read-out: Solubility at 1 hr): 159 mg/mL | solubility at 1 h ([5]; USP buffer with citric acid/sodium citrate, citric acid/sodium citrate 0.5 M, 25° C., read-out: Solubility at 1 hr): 240 mg/mL | solubility at 1 h ([5]; USP buffer with citric acid/sodium citrate, citric acid/sodium citrate 1.0 M, 25° C., read-out: Solubility at 1 hr): 245 mg/mL | solubility at 1 h ([5]; citric acid/sodium citrate ion mixtures, at citrate concentrations of 0.5 M and higher, read-out: solubility): > 200 mg/mL | solubility at 1 h ([6]; DL arginine mixtures, at DL arginine concentrations of 1.0 M and higher, read-out: solubility): > 200 mg/mL | solubility at 1 h ([6]; USP buffer with DL arginine, DL arginine 0.05 M, 25° C., read-out: Solubility at 1 hr): 13 mg/mL | solubility at 1 h ([6]; USP buffer with DL arginine, DL arginine 0.1 M, 25° C., read-out: Solubility at 1 hr): 19 mg/mL | solubility at 1 h ([6]; USP buffer with DL arginine, DL arginine 0.5 M, 25° C., read-out: Solubility at 1 hr): 142 mg/mL | solubility at 1 h ([6]; USP buffer with DL arginine, DL arginine 1.0 M, 25° C., read-out: Solubility at 1 hr): 233 mg/mL | solubility at 1 h ([6]; USP buffer with DL arginine, DL arginine 2.0 M, 25° C., read-out: Solubility at 1 hr): 226 mg/mL | solubility at 1 h ([7]; USP buffer with acetic acid/sodium acetate, pH 2.9, aqueous buffer, pH 2.9, acetic acid/sodium acetate 1.0 M, 25° C., read-out: Solubility at 1 hr): 213 mg/mL | solubility at 1 h ([7]; USP buffer with acetic acid/sodium acetate, pH 3.1, aqueous buffer, pH 3.1, acetic acid/sodium acetate 0.5 M, 25° C., read-out: Solubility at 1 hr): 126 mg/mL | solubility at 1 h ([7]; USP buffer with acetic acid/sodium acetate, pH 3.2, aqueous buffer, pH 3.2, acetic acid/sodium acetate 2.0 M, 25° C., read-out: Solubility at 1 hr): 152 mg/mL | solubility at 1 h ([7]; USP buffer with acetic acid/sodium acetate, pH 3.9, aqueous buffer, pH 3.9, acetic acid/sodium acetate 1.0 M, 25° C., read-out: Solubility at 1 hr): 237 mg/mL | solubility at 1 h ([7]; USP buffer with acetic acid/sodium acetate, pH 3.9, aqueous buffer, pH 3.9, acetic acid/sodium acetate 2.0 M, 25° C., read-out: Solubility at 1 hr): 273 mg/mL | solubility at 1 h ([7]; USP buffer with acetic acid/sodium acetate, pH 4.2, aqueous buffer, pH 4.2, acetic acid/sodium acetate 0.5 M, 25° C., read-out: Solubility at 1 hr): 158 mg/mL | solubility at 1 h ([7]; USP buffer with acetic acid/sodium acetate, pH 4.7, aqueous buffer, pH 4.7, acetic acid/sodium acetate 2.0 M, 25° C., read-out: Solubility at 1 hr): 271 mg/mL | solubility at 1 h ([7]; USP buffer with acetic acid/sodium acetate, pH 4.8, aqueous buffer, pH 4.8, acetic acid/sodium acetate 1.0 M, 25° C., read-out: Solubility at 1 hr): 235 mg/mL | solubility at 1 h ([7]; USP buffer with acetic acid/sodium acetate, pH 5.7, aqueous buffer, pH 5.7, acetic acid/sodium acetate 1.0 M, 25° C., read-out: Solubility at 1 hr): 212 mg/mL | solubility at 1 h ([7]; USP buffer with acetic acid/sodium acetate, pH 5.9, aqueous buffer, pH 5.9, acetic acid/sodium acetate 2.0 M, 25° C., read-out: Solubility at 1 hr): 244 mg/mL | solubility at 1 h ([7]; USP buffer with acetic acid/sodium acetate, pH 6.9, aqueous buffer, pH 6.9, acetic acid/sodium acetate 1.0 M, 25° C., read-out: Solubility at 1 hr): 207 mg/mL | solubility at 1 h ([7]; USP buffer with acetic acid/sodium acetate, pH 6.9, aqueous buffer, pH 6.9, acetic acid/sodium acetate 2.0 M, 25° C., read-out: Solubility at 1 hr): 225 mg/mL | solubility at 1 h ([7]; USP buffer with acetic acid/sodium acetate, pH 7.7, aqueous buffer, pH 7.7, acetic acid/sodium acetate 1.0 M, 25° C., read-out: Solubility at 1 hr): 205 mg/mL | solubility at 1 h ([7]; USP buffer with acetic acid/sodium acetate, pH 7.8, aqueous buffer, pH 7.8, acetic acid/sodium acetate 2.0 M, 25° C., read-out: Solubility at 1 hr): 212 mg/mL | solubility at 1 h ([7]; USP buffer with acetic acid/sodium acetate, pH 8.2, aqueous buffer, pH 8.2, acetic acid/sodium acetate 0.5 M, 25° C., read-out: Solubility at 1 hr): 125 mg/mL | solubility at 1 h ([7]; USP buffer with acetic acid/sodium acetate, pH 8.9, aqueous buffer, pH 8.9, acetic acid/sodium acetate 0.5 M, 25° C., read-out: Solubility at 1 hr): 50 mg/mL | solubility at 1 h ([7]; USP buffer with acetic acid/sodium acetate, pH 8.9, aqueous buffer, pH 8.9, acetic acid/sodium acetate 1.0 M, 25° C., read-out: Solubility at 1 hr): 102 mg/mL | solubility at 1 h ([7]; USP buffer with acetic acid/sodium acetate, pH 9, aqueous buffer, pH 9.0, acetic acid/sodium acetate 2.0 M, 25° C., read-out: Solubility at 1 hr): 159 mg/mL | solubility at 1 h ([7]; acetic acid/sodium acetate buffer, pH 3, aqueous buffer, pH 3.0, acetic acid/sodium acetate 0.1 M, 25° C., read-out: Solubility at 1 hr): 20 mg/mL | solubility at 1 h ([7]; acetic acid/sodium acetate buffer, pH 3.8, aqueous buffer, pH 3.8, acetic acid/sodium acetate 0.1 M, 25° C., read-out: Solubility at 1 hr): 35 mg/mL | solubility at 1 h ([7]; acetic acid/sodium acetate buffer, pH 4.6, aqueous buffer, pH 4.6, acetic acid/sodium acetate 0.1 M, 25° C., read-out: Solubility at 1 hr): 36 mg/mL | solubility at 1 h ([7]; acetic acid/sodium acetate buffer, pH 4.7, aqueous buffer, pH 4.7, acetic acid/sodium acetate 0.5 M, 25° C., read-out: Solubility at 1 hr): 156 mg/mL | solubility at 1 h ([7]; acetic acid/sodium acetate buffer, pH 5.6, aqueous buffer, pH 5.6, acetic acid/sodium acetate 0.5 M, 25° C., read-out: Solubility at 1 hr): 123 mg/mL | solubility at 1 h ([7]; acetic acid/sodium acetate buffer, pH 6, aqueous buffer, pH 6.0, acetic acid/sodium acetate 0.1 M, 25° C., read-out: Solubility at 1 hr): 36 mg/mL | solubility at 1 h ([7]; acetic acid/sodium acetate buffer, pH 6.7, aqueous buffer, pH 6.7, acetic acid/sodium acetate 0.1 M, 25° C., read-out: Solubility at 1 hr): 31 mg/mL | solubility at 1 h ([7]; acetic acid/sodium acetate buffer, pH 6.8, aqueous buffer, pH 6.8, acetic acid/sodium acetate 0.5 M, 25° C., read-out: Solubility at 1 hr): 133 mg/mL | solubility at 1 h ([7]; acetic acid/sodium acetate buffer, pH 8.2, aqueous buffer, pH 8.2, acetic acid/sodium acetate 0.1 M, 25° C., read-out: Solubility at 1 hr): 31 mg/mL | solubility at 1 h ([7]; acetic acid/sodium acetate buffer, pH 9.4, aqueous buffer, pH 9.4, acetic acid/sodium acetate 0.1 M, 25° C., read-out: Solubility at 1 hr): 34 mg/mL | solubility at 1 h ([7]; acetic acid/sodium acetate ion mixtures, aqueous buffer, at acetate concentrations of 1.0 M and higher, read-out: solubility): > 200 mg/mL
